The source of these data is publication PMC5693942 (Scientific Reports, 2017).

Data set [1] deals with Daphnia magna. Description: Daphnia magna acute 48 h immobilization assay (Daphtoxkit).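 On Average effect (N immobile, 5 daphnids per replicate): test concentrations in mg per L.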 It counts as in vivo. Particulars: for Average effect (N immobile, 5 daphnids per replicate): 48 h. As for the experimental part:
Six concentration levels (5 concentrations plus control, four replicate beakers for each concentrations, five individual for each beaker) were tested. […] Each experiment was repeated in triplicate.

Data set [2] has as its system Tetrahymena thermophila. The data set is described as follows: microbe, parasite or virus in culture. The format is cell-based. On the procedure:
The tests were performed in accordance with the protocols provided by the manufacturer. […] The tests were carried out in disposable spectrophotometric cells of 1 cm path-length, to enable the measurement of the optical density (OD) at 440 nm. […] This change in OD over the time period is used to quantify the degree of inhibition and subsequent calculation of the EC50. Each concentration was repeated in duplicate.

Data set [3] in a line: Activated sludge simulating microcosms (degradation of FL, formation of NFL). It counts as physicochemical. As for the experimental part: Activated sludge microcosm experiments were conducted in the dark and aerobic conditions. Three microcosm bioreactors were investigated in duplicate. They were filled with 2 L of fresh activated sludge collected from a local wastewater treatment plant. […] Dark conditions were simulated by covering up the flask with foil. Aerobic conditions were obtained using air from BOC air cylinder and a thorough mixing was maintained using magnetic stirrers. The experiment was 24 hours long. […] Collected samples were subsequently frozen until their analysis to prevent degradation of compounds.
The compounds studied are characterized as having low volatility and therefore volatilization was not considered as a potential removal pathway in studied microcosms. Photodegradation was also not considered (not relevant) under tested activated sludge conditions. Therefore the two important degradation mechanisms to consider were biodegradation and sorption to sludge. […] However, in this study, sorption equilibrium was assumed and therefore sorption could be considered negligible. This is because sorption is assumed to be fast when compared to biological degradation.
Several reports utilized pseudo-first-order kinetics for degradation of micropollutants in activated sludge reactors[48]–[50]. […] Pseudo-first order biodegradation rate k1 [L g^−1h^−1]

Data set [4] is described as follows: River water simulating microcosms (degradation of FL).
The conditions of data set [5]: cited from earlier work.

≈ marks a conversion by molar mass, not a printed value. Read-outs that look alike come from different tables or passages of the source.

On to `NCC[C@H](Oc1ccc(C(F)(F)F)cc1)c1ccccc1` [(S)-NFL], for which the “Average effect (N immobile, 5 daphnids per replicate)” value turned out to be 0.25 in data set [1] (concentration 0.5); 1 in data set [1] (concentration 1.5); 4 in data set [1] (concentration 5); 5 in data set [1] (concentration 16); 5 in data set [1] (concentration 50). Further, the EC50 in data set [1] (Daphnia magna, D. magna, this study, read-out: EC50_48h -immobilization) was determined as 2.8 µg/mL (≈ 9.48 µM); in data set [2] (Tetrahymena thermophila, T. thermophila, this study, read-out: EC50_24h -growth) it was 3.8 µg/mL (≈ 12.9 µM); in data set [2] (Tetrahymena thermophila, definitive test, read-out: 24hEC50) it was 4.48 µg/mL (≈ 15.2 µM); in data set [2] (Tetrahymena thermophila, range test, read-out: 24hEC50), 1.98 µg/mL (≈ 6.71 µM). Further, the “times more toxic than (S)-FL” value in data set [2] (Tetrahymena thermophila) came to 10 ×. Further, the “% I (percentage inhibition)” value in data set [2] (definitive test, conc. 0.093) is 7.356%; in data set [2] (definitive test, conc. 0.279), 12.473%; in data set [2] (definitive test, conc. 9.302), 28.891%; in data set [2] (definitive test, conc. 15.352), 47.228%; in data set [2] (definitive test, conc. 24.562), 80.171%; in data set [2] (definitive test, conc. 50.660) it was 101.066%. Besides, the “% I (percentage inhibition)” value in data set [2] (definitive test, conc. 76.758) worked out at 104.371%; in data set [2] (range test, conc. 0.005), 34.102%; in data set [2] (range test, conc. 0.050), 7.524%; in data set [2] (range test, conc. 0.500) it was 10.316%; in data set [2] (range test, conc. 5.000) it was 39.684%; in data set [2] (range test, conc. 50.000), 105.825%. In addition, the Concentration in data set [3] (10 µg L-1 microcosm, time 0) is 0.127 ± 0.015 ng/mL; in data set [3] (10 µg L-1 microcosm, time 0.5) it was 0.057 ± 0.006 ng/mL; in data set [3] (10 µg L-1 microcosm, time 1.5), 0.010 ± 0.000 ng/mL; in data set [3] (10 µg L-1 microcosm, time 2), 0.151 ± 0.068 ng/mL; in data set [3] (10 µg L-1 microcosm, time 3) it was 0.222 ± 0.038 ng/mL; in data set [3] (10 µg L-1 microcosm, time 5), 0.384 ± 0.053 ng/mL. In addition, the Concentration in data set [3] (10 µg L-1 microcosm, time 8) is 0.315 ± 0.016 ng/mL; in data set [3] (10 µg L-1 microcosm, time 12), 0.562 ± 0.219 ng/mL; in data set [3] (10 µg L-1 microcosm, time 24), 0.510 ± 0.059 ng/mL; in data set [3] (100 µg L-1 microcosm, time 0) it was 0.553 ± 0.146 ng/mL; in data set [3] (100 µg L-1 microcosm, time 0.5) it was 0.538 ± 0.149 ng/mL; in data set [3] (100 µg L-1 microcosm, time 1), 0.737 ± 0.154 ng/mL. In addition, the Concentration in data set [3] (100 µg L-1 microcosm, time 1.5) was 0.981 ± 0.052 ng/mL; in data set [3] (100 µg L-1 microcosm, time 2) it was 1.890 ± 0.622 ng/mL; in data set [3] (100 µg L-1 microcosm, time 3), 2.515 ± 1.049 ng/mL; in data set [3] (100 µg L-1 microcosm, time 5), 3.535 ± 1.300 ng/mL; in data set [3] (100 µg L-1 microcosm, time 8), 3.844 ± 1.117 ng/mL; in data set [3] (100 µg L-1 microcosm, time 12), 5.346 ± 0.464 ng/mL. Also, the Concentration in data set [3] (100 µg L-1 microcosm, time 24) is 5.046 ± 0.415 ng/mL; in data set [4] (DBR (dark biotic), day 3), 0.001 ± 0.000 ng/mL; in data set [4] (DBR (dark biotic), day 5) it was 0.001 ± 0.000 ng/mL; in data set [4] (LAR (light abiotic), day 3), 0.002 ± 0.001 ng/mL; in data set [4] (LAR (light abiotic), day 4), 0.001 ± 0.000 ng/mL; in data set [4] (LAR (light abiotic), day 12), 0.002 ± 0.001 ng/mL. Besides, the Concentration in data set [4] (LAR (light abiotic), day 16) was 0.001 ± 0.000 ng/mL; in data set [4] (LBR (light biotic), day 3), 0.001 ± 0.000 ng/mL; in data set [4] (LBR (light biotic), day 5), 0.001 ± 0.000 ng/mL.

Turning to `O=C(O)CNC(=O)c1ccccc1` [hippuric acid], in data set [5] (after FL, ref [3]), the “excreted in the urine as this species” value was > 20%.

As to FL glucuronide, the “excreted in the urine as this species” value in data set [5] (in vivo) is on record as 7.4%.

As to NFL glucuronide, the “excreted in the urine as this species” value in data set [5] (in vivo) is 8.2%.
